The values that follow come from ChEMBL document CHEMBL1201862, “PubChem BioAssay data set” (2004).

Common to all, as to experiment: inhibition of tumour cell growth, NCI panel, 48 h
Assay [1] deals with 786-0.
Assay [2] has as its system BT-549.
Assay [3] concerns CAKI-1.
For assay [4], the system named is DU-145.
For assay [5], the system named is HL-60.
For assay [6], the system named is K562.
Assay [7] relates to MDA-MB-231.
Assay [8] concerns MDA-MB-435.
Assay [9] has as its system MOLT-4.
Assay [10] relates to Malme-3M.
The subject of assay [11] is NCI-H226.
Assay [12] relates to NCI-H23.
Assay [13] relates to NCI-H460.
Assay [14] deals with OVCAR-4.
Assay [15] relates to OVCAR-8.
Assay [16] deals with PC-3.
Assay [17] relates to SK-MEL-28.
Assay [18] relates to TK-10.
Assay [19] deals with UACC-62.
Assay [20] deals with UO-31.

SMILES strings stand for the structures.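 A five-concentration, 48-hour dose response in 96-well plates underlies each endpoint, interpolated linearly between surrounding concentrations. The concentration for 50% growth inhibition is given as GI50.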 Active and inactive are the calls of the source. Cut-off read from the data, not from the text of the source: active = GI50 up to about 1.1 µM and inactive = higher. Some results are limits rather than exact numbers.

As for `COc1cc(/C=C/C(=O)CC(=O)/C=C/c2cc(OC)c(O)c(OC)c2)cc(OC)c1O`, the GI50 is 5.82 µM (inactive) in assay [1]; 8.95 µM (inactive) in [2]; 9.04 µM (inactive) in assay [3]; 7.83 µM (inactive) in assay [4]; 16.3 µM (inactive) in assay [5]; 8.69 µM (inactive) in assay [6]. The GI50 in assay [7] was 13.8 µM (inactive); in assay [8], 6.17 µM (inactive); in [9], 6.84 µM (inactive); in assay [10], 9.16 µM (inactive); in [11] it was 10.2 µM (inactive); in assay [12] it was 10.3 µM (inactive). Moreover, the GI50 was 22.8 µM (inactive) in assay [13]; 23.7 µM (inactive) in assay [14]; 10.4 µM (inactive) in [15]; 10.4 µM (inactive) in [16]; 5.71 µM (inactive) in [17]; 20.2 µM (inactive) in [18]. In addition, the figures for the GI50 in assay [19] and in assay [20] were 4.22 µM (inactive) and > 25 µM (inactive), respectively.

`CCOc1cc(C(c2c(O)c3ccccc3oc2=O)c2c(O)c3ccccc3oc2=O)ccc1OC`: the GI50 was 18.3 µM (inactive) in assay [1]; 20.7 µM (inactive) in assay [2]; 16.4 µM (inactive) in assay [3]; 19.3 µM (inactive) in assay [4]; 24.8 µM (inactive) in assay [5]; 33.4 µM (inactive) in [6]. Besides, the GI50 is 16 µM (inactive) in assay [7]; 15.3 µM (inactive) in [8]; 35.9 µM (inactive) in assay [9]; 19.8 µM (inactive) in assay [10]; 23.3 µM (inactive) in assay [11]; 23.4 µM (inactive) in assay [12]. The GI50 in [14] is 17.2 µM (inactive); in assay [15], 20 µM (inactive); in assay [16] it was 17.3 µM (inactive); in assay [17], 28.1 µM (inactive); in assay [18], 18 µM (inactive); in assay [19] it was 18.5 µM (inactive). For the same compound, the GI50 in assay [20] was 22.8 µM (inactive).

Regarding `CN(C)c1n/c(=N/Cc2ccncc2)ss1`, the GI50 in assay [1] is 17.4 µM (inactive); in assay [2], 19.8 µM (inactive); in assay [3], 31.5 µM (inactive); in assay [4] it was > 10 µM (inactive); in [5], 4.39 µM (inactive); in assay [6], 17 µM (inactive). Also, the GI50 is 37.8 µM (inactive) in assay [7]; 38.9 µM (inactive) in assay [8]; 20.3 µM (inactive) in assay [9]; 18.5 µM (inactive) in [10]; > 100 µM (inactive) in assay [11]; 17.5 µM (inactive) in assay [12]. Besides, the GI50 is > 100 µM (inactive) in assay [13]; 18.7 µM (inactive) in [14]; 17.6 µM (inactive) in assay [15]; 26.1 µM (inactive) in assay [16]; 36.8 µM (inactive) in assay [17]; > 66.2 µM (inactive) in assay [18]. In addition, the GI50 in assay [19] is 30.2 µM (inactive); in [20], > 50 µM (inactive).

`O=S1(=O)c2ccccc2-c2nccc3ccnc1c23`: the GI50 in [1] was 25.5 µM (inactive); in [2], 3.77 µM (inactive); in assay [3] it was 15.3 µM (inactive); in assay [4], 11.3 µM (inactive); in [5], 4.76 µM (inactive); in assay [6], 4.33 µM (inactive). Besides, the GI50 was 17.8 µM (inactive) in assay [7]; 11.9 µM (inactive) in assay [8]; 2.72 µM (inactive) in [9]; 21.8 µM (inactive) in [10]; 43.5 µM (inactive) in assay [11]; 14.6 µM (inactive) in assay [12]. Moreover, the GI50 in [13] was 13.1 µM (inactive); in assay [14] it was 37.9 µM (inactive); in [15], 15 µM (inactive); in [16] it was 7.31 µM (inactive); in [17] it was 55.6 µM (inactive); in [18], 20.8 µM (inactive). Moreover, the figures for the GI50 in assay [19] and in assay [20] were 7.59 µM (inactive) and 8.24 µM (inactive), respectively.

Regarding `Cc1ccc(C2SC(=N)Nc3c2c(C)nn3C(=O)c2ccc(Cl)cc2)cc1` (configuration not stated), the GI50 in assay [1], in assay [2], in assay [3], in assay [4], in assay [5] and in [6] was > 10 µM (inactive) in each case. Also, the GI50 in [7], in [8], in assay [9], in [10], in assay [11] and in [12] was > 10 µM (inactive) each time. Besides, the GI50 in assay [13], in [14], in assay [15], in assay [16], in assay [17] and in [18] was > 10 µM (inactive) in each case. Besides, in assay [19], the GI50 was > 10 µM (inactive).

Regarding `CCOC(=O)/C(=C\Nc1c(C)n(C)n(-c2ccccc2)c1=O)C(=O)c1ccccc1`, the GI50 in assay [1], in assay [2], in assay [3], in assay [4], in [5] and in [6] was > 100 µM (inactive) throughout. Besides, the GI50 in [7], in [8], in [9], in assay [10], in assay [11] and in assay [12] was > 100 µM (inactive) in each case. Also, the GI50 in assay [13], in assay [14], in assay [16], in [17], in [18] and in assay [19] was > 100 µM (inactive) each time. For the same compound, in assay [20], the GI50 was > 100 µM (inactive).

Take `COC(=O)C1=C(C)NC(C)=C(C(=O)OC)C1c1nc2sccn2c1[N+](=O)[O-]`: the GI50 in assay [1], in assay [2], in assay [3], in assay [4], in assay [5] and in assay [6] was > 100 µM (inactive) throughout. In addition, the GI50 in assay [7], in assay [8], in assay [9], in assay [11], in [12] and in assay [13] was > 100 µM (inactive) in each case. In addition, the GI50 was > 100 µM (inactive) in [14]; 79.4 µM (inactive) in assay [15]; > 100 µM (inactive) in assay [16]; > 100 µM (inactive) in assay [17]; > 100 µM (inactive) in assay [18]; > 100 µM (inactive) in [19]. The GI50 in assay [20] was > 100 µM (inactive).

For the compound `N#Cc1c(N)n(-c2cccc(C(=O)O)c2)c(=O)c2cc([N+](=O)[O-])ccc12`, the GI50 in assay [1], in assay [2], in assay [3], in assay [4], in assay [5] and in [6] was > 100 µM (inactive) throughout. Further, the GI50 in assay [7], in [8], in [11], in assay [12], in [13] and in assay [14] was > 100 µM (inactive) in each case. Further, the GI50 is > 100 µM (inactive) in [15]; 42 µM (inactive) in [16]; > 100 µM (inactive) in assay [17]; > 100 µM (inactive) in assay [18]; > 100 µM (inactive) in assay [19]; > 100 µM (inactive) in [20].

`O=C1c2ccccc2C(C2c3ccccc3C(=O)c3cc(Br)ccc32)c2ccc(Br)cc21` (configuration not stated): the GI50 was > 100 µM (inactive) in [1]; > 100 µM (inactive) in assay [2]; > 100 µM (inactive) in assay [3]; > 100 µM (inactive) in assay [4]; < 0.01 µM (active) in assay [5]; 31.8 µM (inactive) in assay [6]. For the same compound, the GI50 is > 100 µM (inactive) in [7]; > 100 µM (inactive) in assay [8]; 61 µM (inactive) in assay [9]; > 100 µM (inactive) in [10]; > 100 µM (inactive) in assay [11]; > 100 µM (inactive) in assay [12]. Besides, the GI50 in assay [14], in assay [15], in assay [16], in assay [17], in assay [18] and in [19] was > 100 µM (inactive) each time. Moreover, the GI50 in assay [20] is > 100 µM (inactive).

As to `FC1(F)SC2CCCCCCCCCCC2C1(F)F` (configuration not stated), the GI50 in assay [1] was 56.4 µM (inactive); in [2], 44 µM (inactive); in assay [3] it was 59.6 µM (inactive); in [4], 31.1 µM (inactive); in assay [5], 15.4 µM (inactive); in assay [6], 15.3 µM (inactive). The GI50 is 22.8 µM (inactive) in assay [7]; 28.3 µM (inactive) in [8]; 28.2 µM (inactive) in assay [9]; 21.8 µM (inactive) in assay [10]; 33.3 µM (inactive) in assay [11]; 23.8 µM (inactive) in assay [12]. Moreover, the GI50 was 22.1 µM (inactive) in [14]; 40.9 µM (inactive) in assay [15]; 42.6 µM (inactive) in [16]; 18.5 µM (inactive) in [17]; 56.2 µM (inactive) in [18]; 33.9 µM (inactive) in assay [19]. The GI50 in assay [20] is 78.2 µM (inactive).
